Laboratory results published in ChEMBL document CHEMBL1147393, “Two new modified trichothecenes from Fusarium sporotrichioides” (J Nat Prod, 1993).

Assay: Cytotoxicity against syrian golden hamsters BHK21 cells
Format: cell-based, Mesocricetus auratus
Conditions: hamster, bhk-21

SMILES	LC100 [ng/mL]
CC1=C[C@H]2OC[C@]3(O)C[C@H](O)C[C@]3(C)[C@@]2(C)CC1	1000
CC(=O)O[C@]12CO[C@@H]3C=C(C)CC[C@]3(C)[C@@]1(C)C[C@@H](O)C2	1000
